Holding throughout (format): biochemical
Test [1] has as its system panel of 60 human kinases. The experiment in a line: Radiolabeled ATP kinase assay, panel of 60 kinases (Table S5). Particulars: 0.5 μM. An outline of the steps:
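Compounds at two concentrations, 0.1 μM and 0.5 μM, were screened for inhibition of 60 kinases in cell-free assays read out by radiolabeled ATP.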

For test [2], the target named is T1, panel of 371 human kinases (Homo sapiens, UniProt P10721).
T1 construct: purchased Reaction Biology Corp
Description: Radiolabeled ATP kinase assay, panel of 371 kinases (Table S6). Conditions: c-Kit; 0.1 μM; 10 μM ATP; read-out: % Enzyme Activity (relative to DMSO controls). From the text:
(§1) ; FIG. 38C). […]. Further targeted analyses, such as genetic knock-down or knock-out, may be warranted to parse the role of these additional kinases in our model of neurodegeneration.

For test [3], the target named is T2, panel of 371 human kinases (Homo sapiens, UniProt P23458).
T2 construct: purchased Reaction Biology Corp
Described as above. Conditions: JAK1; 0.1 μM; 10 μM ATP; read-out: % Enzyme Activity (relative to DMSO controls).
Text: as §1

The target in test [4] is T3, panel of 371 human kinases (Homo sapiens, UniProt O96013).
T3 construct: purchased Reaction Biology Corp
Described as above. Conditions: PAK4; 0.1 μM; 10 μM ATP; read-out: % Enzyme Activity (relative to DMSO controls).
Text: as §1

The target of test [5] is T4, panel of 371 human kinases (Homo sapiens, UniProt P17948).
T4 construct: purchased Reaction Biology Corp
The description is as above. Particulars: FLT1/VEGFR1; 0.1 μM; 10 μM ATP; read-out: % Enzyme Activity (relative to DMSO controls).
Text: as §1

Test [6] deals with T5, panel of 371 human kinases (Homo sapiens, UniProt Q13554).
T5 construct: purchased Reaction Biology Corp
The description is as above. Conditions: CAMK2b; 0.1 μM; 10 μM ATP; read-out: % Enzyme Activity (relative to DMSO controls).
Text: as §1

The target of test [7] is T6, panel of 371 human kinases (Homo sapiens, UniProt Q9UPE1).
T6 construct: purchased Reaction Biology Corp
The test is described as above. Particulars: MSSK1/STK23; 0.1 μM; 10 μM ATP; read-out: % Enzyme Activity (relative to DMSO controls).
Text: as §1

In test [8] the target is T7, panel of 371 human kinases (Homo sapiens, UniProt P08631).
T7 construct: purchased Reaction Biology Corp
The test is described as above. Conditions: HCK; 0.1 μM; 10 μM ATP; read-out: % Enzyme Activity (relative to DMSO controls).
Text: as §1

In test [9] the target is T8, panel of 371 human kinases (Homo sapiens, UniProt O14965).
T8 construct: purchased Reaction Biology Corp
Described as above. Conditions: Aurora A; 0.1 μM; 10 μM ATP; read-out: % Enzyme Activity (relative to DMSO controls).
Text: as §1

Test [10] deals with T9, panel of 371 human kinases (Homo sapiens, UniProt P36896).
T9 construct: purchased Reaction Biology Corp
Described as above. Particulars: ALK4/ACVR1B; 0.1 μM; 10 μM ATP; read-out: % Enzyme Activity (relative to DMSO controls).
Text: as §1

Test [11] addresses T10, panel of 371 human kinases (Homo sapiens, UniProt P51617).
T10 construct: purchased Reaction Biology Corp
Described as above. Conditions: IRAK1; 0.1 μM; 10 μM ATP; read-out: % Enzyme Activity (relative to DMSO controls).
Text: as §1

Test [12] addresses T11, panel of 371 human kinases (Homo sapiens, UniProt Q96PY6).
T11 construct: purchased Reaction Biology Corp
The description is as above. Particulars: NEK1; 0.1 μM; 10 μM ATP; read-out: % Enzyme Activity (relative to DMSO controls).
Text: as §1

The target in test [13] is T12, panel of 371 human kinases (Homo sapiens, UniProt O94921).
T12 construct: purchased Reaction Biology Corp
The test is described as above. Conditions: CDK14/cyclin Y (PFTK1); 0.1 μM; 10 μM ATP; read-out: % Enzyme Activity (relative to DMSO controls).
Text: as §1

In test [14] the target is T13, panel of 371 human kinases (Homo sapiens, UniProt P42681).
T13 construct: purchased Reaction Biology Corp
The description is as above. Conditions: TXK; 0.1 μM; 10 μM ATP; read-out: % Enzyme Activity (relative to DMSO controls).
Text: as §1

For test [15], the target named is T14, panel of 371 human kinases (Homo sapiens, UniProt O43353).
T14 construct: purchased Reaction Biology Corp
The test is described as above. Conditions: RIPK2; 0.1 μM; 10 μM ATP; read-out: % Enzyme Activity (relative to DMSO controls).
Text: as §1

The target of test [16] is T15, panel of 371 human kinases (Homo sapiens, UniProt Q9P1W9).
T15 construct: purchased Reaction Biology Corp
The description is as above. Conditions: PIM2; 0.1 μM; 10 μM ATP; read-out: % Enzyme Activity (relative to DMSO controls).
Text: as §1

Test [17] addresses T16, panel of 371 human kinases (Homo sapiens, UniProt Q00534).
T16 construct: purchased Reaction Biology Corp
The test is described as above. Particulars: 0.1 μM, 10 μM ATP, read-out: % Enzyme Activity (relative to DMSO controls).
Text: as §1

Test [18] concerns the target T17, panel of 371 human kinases (Homo sapiens, UniProt Q00535).
T17 construct: purchased Reaction Biology Corp
The description is as above. Particulars: 0.1 μM, 10 μM ATP, read-out: % Enzyme Activity (relative to DMSO controls).
Text: as §1

In test [19] the target is T18, panel of 371 human kinases (Homo sapiens, UniProt Q9UF33).
T18 construct: purchased Reaction Biology Corp
The test is described as above. Particulars: EPHA6; 0.1 μM; 10 μM ATP; read-out: % Enzyme Activity (relative to DMSO controls).
Text: as §1

For test [20], the target named is T19, panel of 371 human kinases (Homo sapiens, UniProt Q04771).
T19 construct: purchased Reaction Biology Corp
The description is as above. Particulars: ALK2/ACVR1; 0.1 μM; 10 μM ATP; read-out: % Enzyme Activity (relative to DMSO controls).
Text: as §1

Test [21] concerns the target T20, panel of 371 human kinases (Homo sapiens, UniProt Q9Y2U5).
T20 construct: purchased Reaction Biology Corp
The description is as above. Particulars: MEKK2; 0.1 μM; 10 μM ATP; read-out: % Enzyme Activity (relative to DMSO controls).
Text: as §1

In test [22] the target is T21, panel of 371 human kinases (Homo sapiens, UniProt P25098).
T21 construct: purchased Reaction Biology Corp
Described as above. Particulars: GRK2; 0.1 μM; 10 μM ATP; read-out: % Enzyme Activity (relative to DMSO controls).
Text: as §1

Test [23] addresses T22, panel of 371 human kinases (Homo sapiens, UniProt Q52WX2).
T22 construct: purchased Reaction Biology Corp
Described as above. Particulars: SBK1; 0.1 μM; 10 μM ATP; read-out: % Enzyme Activity (relative to DMSO controls).
Text: as §1

Where two headings read alike, the source gives them in different places.

T16 sequence (Q00534 whole entry): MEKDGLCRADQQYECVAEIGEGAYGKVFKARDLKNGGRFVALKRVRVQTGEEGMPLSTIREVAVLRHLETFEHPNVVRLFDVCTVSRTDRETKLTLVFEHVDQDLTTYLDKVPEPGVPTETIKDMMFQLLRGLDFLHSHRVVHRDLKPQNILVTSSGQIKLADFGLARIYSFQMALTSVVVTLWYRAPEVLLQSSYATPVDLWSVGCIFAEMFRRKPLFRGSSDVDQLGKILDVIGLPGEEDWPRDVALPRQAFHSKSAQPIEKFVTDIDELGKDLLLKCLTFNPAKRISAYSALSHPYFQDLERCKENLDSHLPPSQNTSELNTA
T17 sequence (Q00535 whole entry): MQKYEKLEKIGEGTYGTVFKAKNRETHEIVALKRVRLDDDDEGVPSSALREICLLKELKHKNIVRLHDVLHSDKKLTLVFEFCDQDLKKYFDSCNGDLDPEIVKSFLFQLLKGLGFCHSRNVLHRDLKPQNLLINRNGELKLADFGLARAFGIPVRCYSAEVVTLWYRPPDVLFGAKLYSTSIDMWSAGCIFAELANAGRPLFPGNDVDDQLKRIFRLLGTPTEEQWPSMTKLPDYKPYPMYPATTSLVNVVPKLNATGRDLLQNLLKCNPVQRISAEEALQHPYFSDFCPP
T18 sequence (Q9UF33 23-1036): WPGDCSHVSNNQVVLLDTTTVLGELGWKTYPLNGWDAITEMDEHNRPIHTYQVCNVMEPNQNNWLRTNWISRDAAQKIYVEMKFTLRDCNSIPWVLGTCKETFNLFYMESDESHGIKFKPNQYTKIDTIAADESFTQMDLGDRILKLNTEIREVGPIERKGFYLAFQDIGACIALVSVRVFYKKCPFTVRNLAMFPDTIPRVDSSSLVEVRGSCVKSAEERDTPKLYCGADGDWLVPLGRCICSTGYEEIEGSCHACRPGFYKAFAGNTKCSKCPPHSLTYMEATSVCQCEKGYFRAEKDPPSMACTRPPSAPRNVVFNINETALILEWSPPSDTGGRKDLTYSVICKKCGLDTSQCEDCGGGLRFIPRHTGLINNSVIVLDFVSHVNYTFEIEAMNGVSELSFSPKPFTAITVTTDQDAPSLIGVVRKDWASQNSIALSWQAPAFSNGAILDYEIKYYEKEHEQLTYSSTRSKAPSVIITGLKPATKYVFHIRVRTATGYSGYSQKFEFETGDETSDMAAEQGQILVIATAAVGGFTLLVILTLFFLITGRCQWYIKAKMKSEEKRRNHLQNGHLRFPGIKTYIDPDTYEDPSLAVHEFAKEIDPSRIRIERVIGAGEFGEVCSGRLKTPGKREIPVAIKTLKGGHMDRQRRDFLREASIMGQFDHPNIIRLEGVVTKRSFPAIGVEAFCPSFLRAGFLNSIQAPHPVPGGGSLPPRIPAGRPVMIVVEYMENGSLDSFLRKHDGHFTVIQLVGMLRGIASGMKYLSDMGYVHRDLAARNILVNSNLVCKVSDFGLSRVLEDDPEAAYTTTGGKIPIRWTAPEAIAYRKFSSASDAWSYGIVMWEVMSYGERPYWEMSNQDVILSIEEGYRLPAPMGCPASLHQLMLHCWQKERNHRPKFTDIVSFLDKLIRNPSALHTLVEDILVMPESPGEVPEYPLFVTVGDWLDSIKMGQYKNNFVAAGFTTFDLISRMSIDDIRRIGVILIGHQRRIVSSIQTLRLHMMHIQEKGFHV
T3 sequence (O96013 whole entry): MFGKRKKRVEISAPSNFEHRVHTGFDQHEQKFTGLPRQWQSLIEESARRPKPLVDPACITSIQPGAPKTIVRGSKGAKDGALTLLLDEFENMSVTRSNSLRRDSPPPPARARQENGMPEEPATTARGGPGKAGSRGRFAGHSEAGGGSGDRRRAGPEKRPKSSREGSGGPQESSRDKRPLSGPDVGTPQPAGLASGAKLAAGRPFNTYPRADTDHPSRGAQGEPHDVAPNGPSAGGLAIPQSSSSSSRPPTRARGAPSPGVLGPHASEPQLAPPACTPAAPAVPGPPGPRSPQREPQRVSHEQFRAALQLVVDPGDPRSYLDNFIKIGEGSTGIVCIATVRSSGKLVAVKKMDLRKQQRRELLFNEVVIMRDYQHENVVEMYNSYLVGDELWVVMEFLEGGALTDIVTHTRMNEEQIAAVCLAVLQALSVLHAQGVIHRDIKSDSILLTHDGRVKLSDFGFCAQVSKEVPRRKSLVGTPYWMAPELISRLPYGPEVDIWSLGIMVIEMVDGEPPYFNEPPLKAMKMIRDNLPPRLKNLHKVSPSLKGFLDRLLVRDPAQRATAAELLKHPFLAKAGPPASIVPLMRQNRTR
T15 sequence (Q9P1W9 whole entry): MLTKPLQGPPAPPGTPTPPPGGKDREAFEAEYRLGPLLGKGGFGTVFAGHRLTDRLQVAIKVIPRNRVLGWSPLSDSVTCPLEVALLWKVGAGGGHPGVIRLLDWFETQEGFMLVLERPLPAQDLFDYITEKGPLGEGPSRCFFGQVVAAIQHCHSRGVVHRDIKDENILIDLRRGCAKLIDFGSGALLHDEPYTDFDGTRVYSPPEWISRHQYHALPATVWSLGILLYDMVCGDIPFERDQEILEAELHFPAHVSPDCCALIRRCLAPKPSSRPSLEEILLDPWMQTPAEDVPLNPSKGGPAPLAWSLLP
T4 sequence (P17948 27-1338): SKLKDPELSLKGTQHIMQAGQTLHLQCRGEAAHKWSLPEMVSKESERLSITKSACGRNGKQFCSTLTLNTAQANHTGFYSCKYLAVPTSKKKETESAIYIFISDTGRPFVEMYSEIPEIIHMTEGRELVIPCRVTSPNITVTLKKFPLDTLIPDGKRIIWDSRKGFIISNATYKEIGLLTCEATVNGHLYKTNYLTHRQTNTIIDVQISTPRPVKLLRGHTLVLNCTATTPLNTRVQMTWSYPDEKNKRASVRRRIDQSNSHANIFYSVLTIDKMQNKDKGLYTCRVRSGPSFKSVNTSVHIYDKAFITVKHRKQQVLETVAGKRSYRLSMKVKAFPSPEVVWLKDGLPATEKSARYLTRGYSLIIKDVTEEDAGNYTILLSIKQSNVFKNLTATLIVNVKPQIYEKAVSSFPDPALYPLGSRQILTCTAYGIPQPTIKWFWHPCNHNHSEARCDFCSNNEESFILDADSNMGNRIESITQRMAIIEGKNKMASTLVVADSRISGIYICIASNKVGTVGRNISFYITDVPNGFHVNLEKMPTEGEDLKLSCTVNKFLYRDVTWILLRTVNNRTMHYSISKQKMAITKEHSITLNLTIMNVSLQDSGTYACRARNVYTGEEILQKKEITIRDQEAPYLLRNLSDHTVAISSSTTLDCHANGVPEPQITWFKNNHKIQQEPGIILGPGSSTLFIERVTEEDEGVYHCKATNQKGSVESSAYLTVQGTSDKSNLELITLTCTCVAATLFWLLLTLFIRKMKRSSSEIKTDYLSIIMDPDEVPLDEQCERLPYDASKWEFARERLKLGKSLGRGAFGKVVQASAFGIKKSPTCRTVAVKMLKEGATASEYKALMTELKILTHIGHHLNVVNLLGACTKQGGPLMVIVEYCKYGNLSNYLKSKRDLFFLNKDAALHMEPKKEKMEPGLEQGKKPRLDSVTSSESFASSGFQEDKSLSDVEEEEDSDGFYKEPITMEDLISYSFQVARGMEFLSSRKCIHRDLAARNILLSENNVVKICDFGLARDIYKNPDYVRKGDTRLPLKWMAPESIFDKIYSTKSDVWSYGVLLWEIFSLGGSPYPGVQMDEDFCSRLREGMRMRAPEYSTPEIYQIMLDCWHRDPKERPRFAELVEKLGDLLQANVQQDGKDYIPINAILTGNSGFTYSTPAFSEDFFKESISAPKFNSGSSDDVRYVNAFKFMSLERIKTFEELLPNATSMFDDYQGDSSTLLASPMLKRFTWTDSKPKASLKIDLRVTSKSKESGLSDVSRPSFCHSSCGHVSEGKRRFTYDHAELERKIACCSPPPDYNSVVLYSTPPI
T13 sequence (P42681 whole entry): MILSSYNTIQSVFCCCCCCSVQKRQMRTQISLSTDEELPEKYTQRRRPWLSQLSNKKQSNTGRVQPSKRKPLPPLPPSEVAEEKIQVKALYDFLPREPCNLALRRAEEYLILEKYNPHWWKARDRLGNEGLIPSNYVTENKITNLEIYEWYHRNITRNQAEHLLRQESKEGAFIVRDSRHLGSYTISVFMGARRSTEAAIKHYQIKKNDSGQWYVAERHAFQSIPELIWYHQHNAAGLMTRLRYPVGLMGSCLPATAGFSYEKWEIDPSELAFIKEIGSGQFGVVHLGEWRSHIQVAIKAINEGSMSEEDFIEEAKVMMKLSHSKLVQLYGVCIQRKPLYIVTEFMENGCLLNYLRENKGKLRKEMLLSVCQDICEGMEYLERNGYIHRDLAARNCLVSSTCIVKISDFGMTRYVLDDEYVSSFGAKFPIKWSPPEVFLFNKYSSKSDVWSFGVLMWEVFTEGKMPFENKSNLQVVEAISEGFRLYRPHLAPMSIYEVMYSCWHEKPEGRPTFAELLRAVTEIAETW
T7 sequence (P08631 whole entry): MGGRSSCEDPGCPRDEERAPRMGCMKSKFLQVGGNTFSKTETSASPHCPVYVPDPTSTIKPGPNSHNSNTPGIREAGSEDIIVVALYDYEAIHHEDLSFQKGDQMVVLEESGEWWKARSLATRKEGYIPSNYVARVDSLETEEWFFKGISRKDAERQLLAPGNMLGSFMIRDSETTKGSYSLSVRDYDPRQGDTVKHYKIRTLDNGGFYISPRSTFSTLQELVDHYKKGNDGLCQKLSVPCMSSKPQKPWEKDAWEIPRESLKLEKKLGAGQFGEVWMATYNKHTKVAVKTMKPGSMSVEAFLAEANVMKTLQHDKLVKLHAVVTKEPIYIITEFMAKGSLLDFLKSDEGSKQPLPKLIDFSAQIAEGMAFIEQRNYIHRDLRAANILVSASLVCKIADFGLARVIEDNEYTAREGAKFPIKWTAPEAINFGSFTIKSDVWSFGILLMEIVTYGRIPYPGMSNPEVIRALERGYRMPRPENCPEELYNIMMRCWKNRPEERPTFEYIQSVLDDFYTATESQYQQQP

Consider `CN1CCN(Cc2ccc(-c3cnc4[nH]cc(-c5ccc6[nH]ccc6c5)c4c3)cc2)CC1` [Compound 1, 3-(1H-Indol-5-yl)-5-(4-((4-methylpiperazin-1-yl)methyl)phenyl)-1H-pyrrolo[2,3-b]pyridine, reference compound], for which the “number of the 60 kinases strongly inhibited (<20% residual activity)” value in test [1] came out at 27. For the same compound, the remaining activity at 0.1 µM worked out at 100% in test [2]; 103% in test [3]; 88% in test [4]; 88.2% in test [5]; 95.5% in test [6]; 112% in test [7]. Moreover, the remaining activity at 0.1 µM in test [8] was 110%; in test [9] it was 95.2%; in test [10] it was 100%; in [11] it was 86.2%; in test [12], 80.1%; in [13] it was 110%. The remaining activity at 0.1 µM amounted to 85.3% in test [14]; 78.5% in [15]; 106% in [16]; 63.1% in [17] (CDK6/cyclin D1); 92.2% in test [17] (CDK6/cyclin D3); 79.7% in test [18] (CDK5/p25). Further, the remaining activity at 0.1 µM in test [18] (CDK5/p35) is 81.3%; in test [19] it was 106%; in test [20], 121%; in test [21] it was 102%; in test [22], 94%; in test [23] it was 99%.
`CN1CCN(Cc2ccc(-c3cnc4[nH]cc(-c5cccc(Cl)c5)c4c3)cc2)CC1` [Compound 7ad, 3-(3-Chlorophenyl)-5-(4-((4-methylpiperazin-1-yl)methyl)phenyl)-1H-pyrrolo[2,3-b]pyridine]: the “number of the 60 kinases strongly inhibited (<20% residual activity)” value in test [1] turned out to be 12.
Consider `OCCN1CCN(Cc2ccc(-c3cnc4[nH]cc(-c5cccc(Cl)c5)c4c3)cc2)CC1` [Compound 12k, 2-(4-(4-(3-(3-Chlorophenyl)-1H-pyrrolo[2,3-b]pyridin-5-yl)benzyl)piperazin-1-yl)ethan-1-ol], for which the remaining activity at 0.1 µM in [2] amounted to 89.8%; in [3], 90.5%; in test [4] it was 93.8%; in [5], 90.9%; in [6] it was 92.2%; in [7], 103%. For the same compound, the remaining activity at 0.1 µM in test [8] is 95.8%; in [9], 104%; in test [10] it was 95.9%; in test [11] it was 73.2%; in [12], 76.5%; in [13] it was 94.9%. For the same compound, the remaining activity at 0.1 µM in [14] came to 87%; in test [15] it was 92.3%; in test [16] it was 106%; in test [17] (CDK6/cyclin D1), 30.7%; in test [17] (CDK6/cyclin D3), 68.2%; in test [18] (CDK5/p25) it was 75.9%. The remaining activity at 0.1 µM came out at 79.2% in [18] (CDK5/p35); 98.2% in [19]; 126% in test [20]; 93.3% in test [21]; 96.3% in [22]; 98.7% in test [23].
